# In patent publication US20200129525A1, “Method to improve quality of life in non-primate animals by administration of Dehydroepiandrosterone Sulfate (DHEAS) sufficient to achieve primate-specific levels of circulating DHEAS that are not natural to the target species” (priority 2018, published 2020):
# Values joined by “and” are separate entries in the source; they are usually repeats but may differ in a detail not shown here. Equal values may be shown once.
# Tested on: dogs
# Experiment: Study on 60 dogs: owner estimation of playfulness and sociability before and after DHEAS treatment
# Assay type: in vivo, dog
# Settings: for playfulness and sociability: dogs
# Description: Table 1. […] Playfulness was defined as a dog initiating solitary play. Sociability was defined as a dog initiating play with another pet or with its owner. […] Of twenty-six dogs treated the highest doses (25 or 50 mg/kg) eighteen owners reported the changes in their dogs to be dramatic.
# Physiological levels of circulating DHEAS in canines are 10 ng/ml (±2 ng/ml) (Frank et al, 2003; Odell & Parker, 1985; Tremblay & Belanger, 1985; Mialot et al, 1988; Mongillo et al, 2014; Rondelli et al, 2015). Our invention employs doses of DHEAS that produce supra-physiologic concentrations of circulating DHEAS at least nine times higher than this, i.e., at least 90 ng/ml, i.e. equivalent to the lower range of primate-specific high levels of circulating DHEAS (FIG. 1). This equates to a minimum treatment dose of 0.009 mg/kg. Our studies reported here were performed with DHEAS administered at ranges from 0.5-50 mg/kg. For all non-primate animals, this invention employs supra-physiologic doses of DHEAS that produce concentrations of circulating DHEAS that are at least ten-fold higher than those found naturally
# Thus, in 56 of 60 treated dogs, owners reported observing a very clear improvement in their dog's playfulness and sociability, an observation that in most cases was also remarked upon by visitors to the owner's home. The uniformity of this finding is surprising, because the natural levels of canine DHEAS are quite low, and so this species has never been exposed to such high levels as we report here. Clearly, dogs experience an unmistakable positive response to exogenous DHEAS.
# We administered our DHEAS orally, as a liquid, or in capsules. A preferred embodiment of this invention are dosage formulations that mask the bitter flavor of DHEAS from dogs or other pet animals receiving it orally. As an example, Onda et al. (U.S. Pat. No. 4,385,078A) teach methods for providing enteric coatings for solid dosage forms. Tai (U.S. Pat. No. 5,013,557A) teaches taste masking compositions comprising spray dried microcapsules containing sucralfate, and Alkire (U.S. Pat. No. 5,607,697A) and Cherukuri et al (U.S. Pat. No. 5,013,716A) teach the manufacture of taste masking microparticles for oral dosage forms. Patell (U.S. Pat. No. 4,916,161A) teaches the use of taste-masking pharmaceutical agents via wet granulation. In short, many methods are available to produce a formulation that will effectively prevent dogs or other pet animals from experiencing the bitter taste of DHEAS. Very little work has been done using DHEAS as the pharmaceutical ingredient, with most studies utilizing DHEA. For example, US20140235598A1 teaches the manufacture of tablets containing DHEA, but a similar formulation could be rendered with DHEAS.
substance,measurement,setting,value
Dehydroepiandrosterone sulfate [DHEAS],dogs whose owners reported a clear increase in playfulness and/or sociability during the treatment period,"60 treated dogs, DHEAS oral (liquid or capsules), 0.5-50 mg/kg, owner estimation",fifty-six of sixty and 56 of 60
same,playfulness and sociability,doses of 5 mg/kg and above,profound increase
same,playfulness and sociability,lower dose of 1 mg/kg,an effect could be observed
same,owners who reported the changes in their dogs to be dramatic,of twenty-six dogs treated with the highest doses (25 or 50 mg/kg),eighteen
